In PMC7690861, “Topical Administration of Cannabidiol: Influence of Vehicle-Related Aspects on Skin Permeation Process” (Pharmaceuticals, 2020):
In brackets after ≈: the same amount, converted by molar mass. Read-outs that look alike come from different tables or passages of the source. Marks after values point to notes of the source that are not given here.

What was measured:
[1] = parameters: method as in Burke [29]; conditions: experimental; ref Burke [29]; cited from earlier work
[2] = Fedors method; ref Minghetti et al. [26]; cited from earlier work
[3] = physchem
Description: The equilibrium solubility of CBD in each of the above-mentioned solvent systems was determined by the shake-flask method. An excess quantity of the cannabinoid compound was added to 1 mL of each test solution in a glass vial. […] In the case of aqueous solutions, the supernatant fluid was then filtered (0.45 μm PP syringe filter) and properly diluted in methanol before being analyzed by HPLC. In the case of oily solutions, the supernatant fluid was filtered (0.45 μm PVDF syringe filter); then, 60 μL of the filtered solution was withdrawn and added to 5 mL of methanol; the mixture was vortexed for 1 min and allowed to stand for 1 min three times, then it was centrifuged (4000 rpm, 2 min); the supernatant fluid was sampled and properly diluted in methanol before being analyzed by HPLC. Each solubility value was calculated as the mean of three independent shake-flask experiments, considering any dilution factors and an extraction efficiency factor in case of oily solutions.

[4] = Preliminary chemical stability of CBD in tested formulations (total impurities); assay type: physicochemical; conditions: over the preparation process and the permeation experiments; preliminary data
Source text: Evidence in the literature highlighted that CBD was quite unstable in a solution for a long period. Even if an in-depth investigation of the chemical stability of CBD loaded in the tested formulation has not been performed yet, preliminary data highlighted that CBD was stable over both the preparation process and the permeation experiments (total impurities < 2% of CBD assay). […] Further studies are needed to determine the long-term stability of the tested formulations.
HPLC analysis was run using an HP 1100 ChemStation system (Agilent Technologies Inc, USA), acetonitrile/phosphate buffer pH 3.0 (75/25, v/v) was used as mobile phase at a flow rate of 1.5 mL/min, injection volume was set at 20 μL. The UV detector was set at a wavelength of 215 nm. A reverse-phase C8 column (InertClone™, 5 μm, 150 × 4.6 mm; Phenomenex Inc, Torrance, USA) was used. The retention time of the CBD was 4.0 min. Two calibration curves were made in the overall range of 0.02–100 μg/mL.

CC(O)CO (stereo not shown) [Propylene glycol]
δ (solubility parameter) [1]: 14.80 ^d cal/cm^3

O-acylglucosylceramide
δ (solubility parameter) [2]: 10.03 ^a cal/cm^3

C=C(C)[C@@H]1CCC(C)=C[C@H]1c1c(O)cc(CCCCC)cc1O [CBD, Cannabidiol]
solubility at 24 h [3]: 2240 ± 80 µg/mL (≈ 7.12 mM)
Total impurities [4]: < 2 % of CBD assay
